In brackets after ≈: the same amount, converted by molar mass. Bounds are passed on as bounds.

The nature of data set [1]: Cytotoxicity against human HeLa cells assessed as cell viability at 20 uM after 24 hrs by resazurin dye-based fluorescence assay relative to control. The settings on record: read-out: Activity. Background: The colour change of resazurin is a common sign of viable cells or microbes.
In data set [2] the test system is Mycobacterium tuberculosis. Description: microbe, parasite or virus in culture. The settings on record: H37Rv.
Description: Antitubercular activity against Mycobacterium tuberculosis H37Rv after 7 to 14 days by broth micro dilution method
For data set [3], the system named is HeLa. Kind of data set: Cytotoxicity against human HeLa cells assessed as reduction in cell viability after 24 hrs by resazurin dye-based fluorescence assay.
Data set [4] is described as follows: Aqueous solubility in pH 6.5 PBS at 10 to 220 uM after 20 hrs by nephelometric analysis. It is filed as physicochemical.
The nature of data set [5]: Metabolic stability in pooled human liver microsomes assessed as percentage of compound remaining at 1 uM by LC-MS/MS analysis. The data set is classed as ADME, Microsome. The settings on record: read-out: Stability. (In general: Liver microsomes are vesicles of endoplasmic reticulum, rich in cytochrome P450 enzymes.)
A short description of data set [6]: Metabolic stability in rat liver microsomes assessed as percentage of compound remaining at 1 uM by LC-MS/MS analysis. It is filed as ADME, Microsome. As to conditions: read-out: Stability.
Data set [7] in a line: Metabolic stability in mouse liver microsomes assessed as percentage of compound remaining at 1 uM by LC-MS/MS analysis. It is filed as ADME, Microsome. As to conditions: read-out: Stability.
Data set [8] can be described thus: Intrinsic clearance in pooled human liver microsomes assessed per mg protein at 1 uM by LC-MS/MS analysis. It is filed as ADME, Microsome.
Data set [9] can be described thus: Intrinsic clearance in rat liver microsomes assessed per mg protein at 1 uM by LC-MS/MS analysis. The data set is classed as ADME, Microsome.
Data set [10] in a line: Intrinsic clearance in mouse liver microsomes assessed per mg protein at 1 uM by LC-MS/MS analysis. It is filed as ADME, Microsome.
Data set [11] can be described thus: Half life in pooled human liver microsomes at 1 uM by LC-MS/MS analysis. It is filed as ADME, Microsome.
A short description of data set [12]: Half life in rat liver microsomes at 1 uM by LC-MS/MS analysis. It is filed as ADME, Microsome.
A short description of data set [13]: Half life in mouse liver microsomes at 1 uM by LC-MS/MS analysis. It is filed as ADME, Microsome.
Data set [14] is described as follows: Hepatic extraction ratio in pooled human liver microsomes at 1 uM by LC-MS/MS analysis. As to conditions: read-out: ERH. It is filed as ADME, Microsome.
Data set [15] is described as follows: Hepatic extraction ratio in rat liver microsomes at 1 uM by LC-MS/MS analysis. The data set is classed as ADME, Microsome. The settings on record: read-out: ERH.
Data set [16] can be described thus: Hepatic extraction ratio in mouse liver microsomes at 1 uM by LC-MS/MS analysis. The data set is classed as ADME, Microsome. The settings on record: read-out: ERH.

Turning to `C/C(=N\NC(=O)c1ccncc1)c1ccc2c(c1)c(=O)c(C(=O)NCCNCCO)cn2Cc1ccc(Br)cc1`, the viability at 24 h, 20 µM in data set [1] was less than 75%. This compound also gave an MIC90 in [2] of 0.8 µM (≈ 0.484 µg/mL).

Regarding `C/C(=N\NC(=O)c1ccncc1)c1ccc2c(c1)c(=O)c(C(=O)NCCNCCO)cn2Cc1ccc(C(F)(F)F)cc1`, the viability at 24 h, 20 µM in data set [1] was less than 75%. In [2], the MIC90 is 1.8 µM (≈ 1.07 µg/mL).

`COCCNC(=O)c1cn(Cc2ccccc2)c2ccc(C(C)=O)cc2c1=O`: in [1], the viability at 24 h, 20 µM was less than 75%. In data set [2], this compound returned an MIC90 of 43.4 µM (≈ 16.4 µg/mL).

In the case of `CC[C@H]1CN2CCc3cc(OC)c(OC)cc3[C@@H]2C[C@@H]1C[C@H]1NCCc2cc(OC)c(OC)cc21` [EMETINE], the IC50 – broadly, the concentration that gives 50% inhibition – in data set [3] came to 15 nM.

Take `CCn1cc(C(=O)NCCOC)c(=O)c2cc(/C(C)=N/NC(=O)c3ccncc3)ccc21`: in data set [1], the viability at 24 h, 20 µM was less than 75%. Also, the kinetic solubility – broadly, the concentration staying in solution when a stock, usually in DMSO, is diluted into the medium – at 20 h in [4] came to 95 µM (≈ 41.4 µg/mL). Besides, the results for the remaining at 1 µM in [5], in data set [6] and in [7] were 90.6%, 87% and 77%, respectively. The CLH in data set [8] was 13.3 µg/min; in [9], 18.7 µg/min; in data set [10] it was 35.3 µg/min. Further, the half-life (as a rule, the time in which the quantity being followed falls by half) at 1 µM in data set [11] is more than 2.5 h; in data set [12], more than 2.5 h; in data set [13] it was 1.33 h. Besides, the hepatic extraction ratio at 1 µM in [14] is less than 0.42; in [15], less than 0.3; in [16], less than 0.49. Moreover, in data set [2], the MIC90 amounted to 0.8 µM (≈ 0.348 µg/mL).

As for `CCn1cc(C(=O)NCCCn2ccnc2)c(=O)c2cc(/C(C)=N/NC(=O)c3ccncc3)ccc21`, in data set [1], the viability at 24 h, 20 µM is less than 75%. Moreover, the MIC90 in [2] was found to be 7.8 µM (≈ 3.79 µg/mL).

As to `CC(=O)c1ccc2c(c1)c(=O)c(C(=O)NCCNCCO)cn2Cc1ccc(Cl)cc1Cl`, in [1], the viability at 24 h, 20 µM is less than 75%. In data set [2], this compound came in with an MIC90 of 125 µM (≈ 59.5 µg/mL).

`CO[C@H]1/C=C/O[C@@]2(C)Oc3c(C)c(O)c4c(O)c(c(/C=N/N5CCN(C)CC5)c(O)c4c3C2=O)NC(=O)/C(C)=C\C=C\[C@H](C)[C@H](O)[C@@H](C)[C@@H](O)[C@@H](C)[C@H](OC(C)=O)[C@@H]1C` [RIFAMPIN]: in data set [2], the MIC90 worked out at 0.06 µM (≈ 0.0494 µg/mL).

Regarding `C/C(=N\NC(=O)c1ccncc1)c1ccc2c(c1)c(=O)c(C(=O)NCCNCCO)cn2Cc1ccccc1`, the viability at 24 h, 20 µM in [1] was less than 75%. The MIC90 in data set [2] is 2 µM (≈ 1.05 µg/mL).

The compound `NNC(=O)c1ccncc1` [ISONIAZID] registered an MIC90 in data set [2] of 0.2 µM (≈ 0.0274 µg/mL).

`COCCNC(=O)c1cn(Cc2ccc(Cl)cc2Cl)c2ccc(/C(C)=N/NC(=O)c3ccncc3)cc2c1=O`: the viability at 24 h, 20 µM in data set [1] is less than 75%. In [2], this compound came in with an MIC90 of 4.8 µM (≈ 2.72 µg/mL).

With `CCOC(=O)c1cn(CC)c2ccc(/C(C)=N/NC(=O)c3ccncc3)cc2c1=O`, the viability at 24 h, 20 µM in data set [1] was less than 75%. In data set [2], the MIC90 worked out at 0.2 µM (≈ 0.0813 µg/mL).

Take `C/C(=N\NC(=O)c1ccncc1)c1ccc2c(c1)c(=O)c(C(=O)NCCOCCO)cn2Cc1ccc(Br)cc1`: the viability at 24 h, 20 µM in [1] is less than 75%. Also, in data set [2], the MIC90 amounted to 2.7 µM (≈ 1.64 µg/mL).

`CCOC(=O)c1cn(C)c2ccc(/C(C)=N/NC(=O)c3ccncc3)cc2c1=O`: the viability at 24 h, 20 µM in data set [1] is less than 75%. This compound returned an MIC90 in data set [2] of 0.9 µM (≈ 0.353 µg/mL).

For the origin of these results see ChEMBL document CHEMBL4368885, “Quinolone-isoniazid hybrids: synthesis and preliminary in vitro cytotoxicity and anti-tuberculosis evaluation” (Medchemcomm, 2019).
